{"source": "patent US20240342348A1", "about": "“MEDICAL DEVICES INCLUDING THERAPEUTIC COATINGS FOR LOCAL DELIVERY OF A DIRECT ANTICOAGULANT” (Boston Scientific Scimed, Inc., priority 2023, published 2024)", "key": {"[1]": {"assay": "Solubility of crystalline drug in water", "type": "physicochemical"}, "[2]": {"conditions": "crystalline drug; cited from earlier work"}, "PTS": {"test_system": "PTS", "conditions": "oral; cited from earlier work"}}, "data": [{"compound": "O=C(NC[C@H]1CN(c2ccc(N3CCOCC3=O)cc2)C(=O)O1)c1ccc(Cl)s1", "note": "[rivaroxaban, (S)-5-Chloro-N-((2-oxo-3-(4-(3-oxomorpholino)phenyl)oxazolidin-5-yl)methyl)thiophene-2-carboxamide]", "values": [{"measurement": "water solubility relative to paclitaxel and everolimus", "setting": "[1]", "value": "approximately 10 times"}, {"measurement": "solubility in water", "setting": "[2]", "value": "about 3 μg drug per mL water"}, {"measurement": "risk of PTS", "setting": "PTS", "value": "significantly reduces the risk of PTS"}]}]}
